# Data reported in PMC7866087, “Evaluation of Computationally Designed Peptides against TWEAK, a Cytokine of the Tumour Necrosis Factor Ligand Family” (International Journal of Molecular Sciences, 2021).
# Where “and” joins values, the source holds several entries; their conditions need not be identical. Equal entries are not always repeated. No end group written: not given here.
# Key:
# [1] = Precipitation in SPR running buffer; type: physicochemical; settings: running buffer HBS-EP pH 7.4, 6.25 µM to 800 µM, 25 °C
# Description: (§1) After chip validation, peptides selected on our cell-based microarray screening were tested.
# Binding assays were performed at 25 °C in a Biacore 3000 instrument (GE Healthcare, Uppsala, Sweden) using nitrilotriacetic (NTA) sensor chips (GE Healthcare) and HBS-EP (0.01 M HEPES pH 7.4, 0.15 M NaCl, 3 mM EDTA, 0.005 % v/v Surfactant P20) as running buffer. Histidine-tagged human TWEAK (His6-TWEAK) protein (R&D Systems, Minneapolis, MN, USA) was covalently immobilized on the sensor surface using a capture coupling method. Briefly, the NTA surface was first stabilized by injection of regeneration buffer (20 μL EDTA-containing running buffer at 20 μL/min) followed by Ni^2+ binding to the surface (40 μL of 500 μM NiCl2 in running buffer at 20 μL/min). The carboxymethyl dextran surface was then activated for primary amine coupling by injecting coupling solution (30 μL of a 1:1 N-hydroxysuccinimide (NHS)/1-ethyl-3-[3-(dimethylamino)-propyl]carbodiimide hydrochloride (EDC) mixture at 5 μL/min). […]
# Binding experiments using a monoclonal anti-TWEAK antibody (Abcam ref. 199405, Cambridge, UK) were run to ascertain adequate functionalization of the immobilized surface. […] The dissociation phase was monitored for 10 min at the same flow rate and followed by a regeneration step with 10 µL of 18 mM NaOH. […]
# [2] = system: TWEAK-Fn14 signalling pathway, BRV5 cells; assay: Cell-based screening of individual peptides, gene expression microarray in TWEAK-stimulated BRV5 cells; set-up: species or system human; settings: 6 h; for BIRC2 mRNA expression (normalized to NARS2) / HSP90B1 mRNA expression (normalized to NARS2) / IL6 mRNA expression (normalized to NARS2) / JUN mRNA expression (normalized to NARS2) / MAP4K4 mRNA expression (normalized to NARS2) / MAPK14 mRNA expression (normalized to NARS2) / NFKB2 mRNA expression (normalized to NARS2) / TNFRSF12A mRNA expression (normalized to NARS2) / TRAF2 mRNA expression (normalized to NARS2): 450 µM
# Text: Pool 1 and 5 were therefore deconstructed to assess the effect of individual peptides and their activity on same cell-based screening. Pools 1 and 5 were composed of peptides 45, 46, 42, 3, 49, 11, and 13; and of peptides 1, 9, 30, 35, 41, 43, 7, and 14, respectively. As before, and shown in Figure 4B, the level of expression of probe genes on TWEAK-stimulated (T) BRV5 cells is overall higher than on non-stimulated (NT) one. […] The structural model of peptides 43, 30, 35 and 49 bound to TWEAK can be seen in Figure 5 and Supplementary Materials Figures S4–S6, respectively.
# Three different cell lines were used in this study: BRV5, MDA-MB 435 (435-P), and HT29. The BRV5 is a highly metastatic brain cell line, obtained in one of our laboratories by primary culture from a brain of a nude mouse inoculated with human 435-Br1 brain metastatic cells, as previously described and used as a model to test the peptides in cell cultures. […] The triple negative 435-P cell line is a useful human breast cancer model that expresses both epithelial and melanocytic markers, and was included as the parental cell from which 435-Br1 metastatic variant was initially originated (both cell lines kindly provided by Dr Fabra at IDIBELL Institute, Hospitalet de Llobregat, Spain). Finally, HT29 human colon carcinoma cells obtained from the European Type Culture Collection (ECACC 91072201) were used as a positive control of TWEAK dependent Fn14 over-expressing cells to evaluate TWEAK-Fn14 axis of brain metastatic variants.
# Appropriate cell culture conditions were established as the controls needed in the expression of genes with and without peptides and with and without TWEAK activation, both as pools and individually (see Supplementary Materials Figure S2). The protocol started with the seeding of 125,000 cells/well in 500 µL of culture media supplemented with 10% fetal bovine serum (CM+FBS10%) in 24-well dishes for 24 h before removing FBS (CM-FBS). After overnight starvation in CM-FBS culture, different peptide treatment conditions (at final concentration of 450 µM) were established in the presence or absence of TWEAK (25 ng/mL final concentration) (Peprotech EC, Ltd., London, UK). Some cells were treated with peptides at a single, unique, initial dose (time 0) while other were treated with repeated doses to account for the effect cell-culture degradation. These include a repeated treatment every hour (i.e., […]), every two hours (time 0, 2, and 4) and every three hours (time 0 and 3)—see Supplementary Materials Figure S2 for diagrammatic depiction. At time 6 (after six hours) cells were lysed and RNA extracted for transcriptomic analyses (see next). Cell were culture for six hours as this was the time needed to achieve the highest upregulation of the TWEAK-Fn14 axis upon TWEAK treatment as shown in previous time-course RT-PCR experiments (see Figure 2).
# RNA from cells was extracted 6 h after treatments by direct lysis on the well. The RNeasy Micro kit (Qiagen, Hilden, Germany) was used to isolate total RNA from cell lysate following manufacturer’s protocols including an additional step of digestion with DNase I (Qiagen, Hilden, Germany). Total RNA concentration was measured in a NanoDrop 1000 spectrophotometer (Thermo Scientific, Waltham, MA, USA). The RNA extracted from treated and untreated cells (see above) was used as a proxy for gene expression.
# The quantitative RT-PCR was performed using Fluidigm Dynamic Array FlexSix array with the specific primers for gene expression (Delta Genes Assays, Wet lab tested on Dynamic Array IFC) designed to RefSeq for detection by pPCR EvaGreen assay (Dynamic Array FlexSix, Fluidigm Corporation). Each Flex Six IFC has a total of six independent partitions. Each partition has a 12 × 12 format (12 assay inlets and 12 sample inlets) and will be run independently as a separate experimental run. […]
# human His6-TWEAK protein = target: T1, human His6-TWEAK protein (Homo sapiens, UniProt O43508); assay: SPR binding of peptides to immobilized His6-TWEAK; settings: 25 °C, 1:1 Langmuir global fit, representative of at least three independent experiments
# T1 construct: purchased R&D Systems
# T1 sequence (O43508 97-249 limits assumed): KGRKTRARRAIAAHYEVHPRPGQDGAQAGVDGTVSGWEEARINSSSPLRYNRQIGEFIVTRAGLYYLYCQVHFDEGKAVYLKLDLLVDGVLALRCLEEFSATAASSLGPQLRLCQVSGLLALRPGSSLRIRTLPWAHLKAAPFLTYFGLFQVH
# Text: SPR biosensor interaction analysis, a label-free screening approach, was used for real-time monitoring of the kinetics and affinity of peptide hits to TWEAK previously identified by cell-based screening. Peptides from pools 1 and 5 were selected both as positive (49, 30, 35 and 43) and negative hits (1 and 42). For our purposes, TWEAK was chosen as ligand, while peptides were chosen as analytes and passed across ligand-derivatized surface. Nitrilotriacetic acid-coated sensor chips (NTA chip) and a coupling approach that results in the capture of a His6-protein in a non-random orientation by the His6 epitope prior to direct free amine-based covalent coupling was used for histidine-tagged TWEAK immobilization.
# as §1
# For each titration, a zero-analyte surface as a control was subtracted from test sensorgram as well as non-specific binding to the blank flow cell without protein; and the chip surface was regenerated in order to remove any remaining analyte. The black curves show the experimental data, while the overlaid red lines represent a global fit of the entire data set to a 1:1 Langmurian interaction model. The fitting process provided both kinetic association and dissociation rate constants (Ka and Kd), as well as equilibrium dissociation constant (KD) values indicated in Figure 6.
# Binding assays were performed at 25 °C in a Biacore 3000 instrument (GE Healthcare, Uppsala, Sweden) using nitrilotriacetic (NTA) sensor chips (GE Healthcare) and HBS-EP (0.01 M HEPES pH 7.4, 0.15 M NaCl, 3 mM EDTA, 0.005 % v/v Surfactant P20) as running buffer. Histidine-tagged human TWEAK (His6-TWEAK) protein (R&D Systems, Minneapolis, MN, USA) was covalently immobilized on the sensor surface using a capture coupling method. Briefly, the NTA surface was first stabilized by injection of regeneration buffer (20 μL EDTA-containing running buffer at 20 μL/min) followed by Ni^2+ binding to the surface (40 μL of 500 μM NiCl2 in running buffer at 20 μL/min). The carboxymethyl dextran surface was then activated for primary amine coupling by injecting coupling solution (30 μL of a 1:1 N-hydroxysuccinimide (NHS)/1-ethyl-3-[3-(dimethylamino)-propyl]carbodiimide hydrochloride (EDC) mixture at 5 μL/min). His6-TWEAK protein in pH 7.4 running buffer was then injected over the surface (60 μL of 10 μg/mL His6-TWEAK at 5 μL/min). To block uncoupled primary amines on the sensor surface, ethanolamine was passed over the surface (35 μL 1M ethanolamine at 5 μL/min). Ligand surfaces were finally conditioned with a 20 µL injection of regeneration solution containing 350 mM EDTA at 20 μL/min. Immobilization levels ranged from 1500 to 7000 resonance units (RUimmob) to test different ligand densities. A blank flow cell on the chip was created by simple injection of 20 μL of regeneration buffer injected over the sensor surface.
# Binding experiments using a monoclonal anti-TWEAK antibody (Abcam ref. 199405, Cambridge, UK) were run to ascertain adequate functionalization of the immobilized surface. Selected synthetic TWEAK-Fn14 inhibitory peptides at two-fold serial dilutions from 800 µM to 0 µM in running buffer were flown over the chip for 5 min at 35 µL/min. The dissociation phase was monitored for 10 min at the same flow rate and followed by a regeneration step with 10 µL of 18 mM NaOH. Specific binding responses for each channel were obtained by double referencing; subtracting non-specific binding to the blank flow cell plus an internal reference standard, namely buffer injection response. Each sample was run in triplicate. The experimental data were fitted to a 1:1 Langmuir binding model by the BIAevaluation software version 4.1 (GE Healthcare, Uppsala, Sweden).
# [3] = individual peptides, BRV5 + TWEAK, mean of replicate columns
# [4] = individual peptides, BRV5 + TWEAK, replicate column 1
# [5] = individual peptides, BRV5 + TWEAK, replicate column 2
# [6] = individual peptides, BRV5 + TWEAK, normalized to NARS2, listed as P30
substance,measurement,setting,value
30: DNGGGNTDIYSE [Peptide 30],precipitation,[1],precipitated at all concentrations tested
same,regulation of probe genes by individual peptides,"[2]; BRV5 + TWEAK 25 ng/mL, peptides 450 µM",lowest overall expression across all genes
same,BIRC2 mRNA expression (normalized to NARS2),[2]; [3],0.4705
same,HSP90B1 mRNA expression (normalized to NARS2),[2]; [3],1.723
same,IL6 mRNA expression (normalized to NARS2),[2]; [3],0.001837
same,JUN mRNA expression (normalized to NARS2),[2]; [3],0.05309
same,MAP4K4 mRNA expression (normalized to NARS2),[2]; [3],0.1227
same,MAPK14 mRNA expression (normalized to NARS2),[2]; [3],0.1367
same,NFKB2 mRNA expression (normalized to NARS2),[2]; [3],0.02657
same,TNFRSF12A mRNA expression (normalized to NARS2),[2]; [3],0.01074
same,TRAF2 mRNA expression (normalized to NARS2),[2]; [3],0.01042
same,BIRC2 mRNA expression (normalized to NARS2),[2]; [4],0.46
same,HSP90B1 mRNA expression (normalized to NARS2),[2]; [4],1.5246
same,IL6 mRNA expression (normalized to NARS2),[2]; [4],0.001779
same,JUN mRNA expression (normalized to NARS2),[2]; [4],0.05111
same,MAP4K4 mRNA expression (normalized to NARS2),[2]; [4],0.1133
same,MAPK14 mRNA expression (normalized to NARS2),[2]; [4],0.1336
same,NFKB2 mRNA expression (normalized to NARS2),[2]; [4],0.02493
same,TNFRSF12A mRNA expression (normalized to NARS2),[2]; [4],0.00974
same,TRAF2 mRNA expression (normalized to NARS2),[2]; [4],0.009779
same,BIRC2 mRNA expression (normalized to NARS2),[2]; [5],0.481
same,HSP90B1 mRNA expression (normalized to NARS2),[2]; [5],1.9206
same,IL6 mRNA expression (normalized to NARS2),[2]; [5],0.001894
same,JUN mRNA expression (normalized to NARS2),[2]; [5],0.05506
same,MAP4K4 mRNA expression (normalized to NARS2),[2]; [5],0.1321
same,MAPK14 mRNA expression (normalized to NARS2),[2]; [5],0.1398
same,NFKB2 mRNA expression (normalized to NARS2),[2]; [5],0.02821
same,TNFRSF12A mRNA expression (normalized to NARS2),[2]; [5],0.01174
same,TRAF2 mRNA expression (normalized to NARS2),[2]; [5],0.01106
same,BIRC2 expression Z-Score,[2]; [6],-0.6095
same,HSP90B1 expression Z-Score,[2]; [6],-0.9208
same,IL6 expression Z-Score,[2]; [6],-0.0450 and -0.04503
same,JUN expression Z-Score,[2]; [6],-0.5095
same,MAP4K4 expression Z-Score,[2]; [6],-1.5551 and -1.555
same,MAPK14 expression Z-Score,[2]; [6],-1.1124 and -1.112
same,NFKB2 expression Z-Score,[2]; [6],-1.3232 and -1.323
same,TNFRSF12A expression Z-Score,[2]; [6],-1.112
same,TRAF2 expression Z-Score,[2]; [6],-0.4386
SYTDVQDS-NH2 [Peptide 49],kon,"human His6-TWEAK protein; HBS-EP pH 7.4, Biacore 3000, NTA chip, read-out: ka",4.88 M⁻¹ s⁻¹
same,Kd,"human His6-TWEAK protein; figure 6, HBS-EP pH 7.4, 6.25 µM to 800 µM peptide",533 µM
